From DBAASP come the findings set out here.

Test in all cases: ≥ marks a high value that may be exact or a test limit, other limits are often not marked, values filed in µg/mL are converted to µM
Assay [1] deals with Pseudomonas aeruginosa IFO 12582.
The subject of assay [2] is Escherichia coli IFO 12734.
In assay [3] the test system is Staphylococcus epidermidis KCTC 1917.
The test system of assay [4] is Staphylococcus aureus IFO 12732.
Assay [5] has as its system Pseudomonas aeruginosa KCTC 1637.
In assay [6] the test system is Salmonella typhimurium KCTC 1926.
Assay [7] relates to Staphylococcus aureus KCTC 1621.
Assay [8] has as its system Bacillus subtilis IFO 3143.
For assay [9], the system named is Escherichia coli KCTC 1682.
Assay [10] concerns Bacillus subtilis KCTC 3068.
Assay [11] has as its system Escherichia coli O157:H7 ATCC 43895.
Assay [12] relates to Aspergillus flavus KCTC 1375.
Assay [13] concerns Malassezia furfur KCTC 7744.
In assay [14] the test system is Pseudomonas aeruginosa ATCC 27853.
Assay [15] concerns Staphylococcus aureus ATCC 25923.
Assay [16] has as its system Staphylococcus aureus.
The subject of assay [17] is Escherichia coli.
Assay [18] concerns Enterococcus faecium ATCC 19434.
Assay [19] deals with Candida albicans ATCC 90028.
Assay [20] relates to Enterococcus faecium.
Assay [21] relates to Pseudomonas aeruginosa.
For assay [22], the system named is Klebsiella pneumoniae DSM 681.
Assay [23] has as its system Micrococcus luteus ATCC 10240.
Assay [24] concerns Escherichia coli BL21AI.
In assay [25] the test system is Escherichia coli DSM 10233.
Assay [26] deals with Trichosporon beigelii KCTC 7707.
For assay [27], the system named is Bacillus subtilis KCTC 1918.
Assay [28] has as its system Candida albicans TIMM 1768.
Assay [29] deals with Proteus vulgaris KCTC 2433.
Assay [30] has as its system Saccharomyces cerevisiae KCTC 7296.

The structures appear in SMILES notation. Converted amounts (≈) assume the structure as drawn.

For the compound `CC(C)C[C@H](NC(=O)[C@H](Cc1ccc(O)cc1)NC(=O)[C@H](Cc1cnc[nH]1)NC(=O)[C@@H](NC(=O)[C@H](CC(C)C)NC(=O)[C@H](C)NC(=O)[C@H](C)NC(=O)[C@H](CCCCN)NC(=O)[C@H](C)NC(=O)[C@@H](NC(=O)[C@H](Cc1cnc[nH]1)NC(=O)[C@H](CCCCN)NC(=O)[C@H](C)NC(=O)[C@@H](NC(=O)[C@H](Cc1cnc[nH]1)NC(=O)[C@H](C)NC(=O)[C@H](C)NC(=O)[C@H](CCCCN)NC(=O)[C@H](CCCCN)NC(=O)[C@H](Cc1ccccc1)NC(=O)[C@H](Cc1ccccc1)NC(=O)[C@H](CO)NC(=O)CNC(=O)[C@H](Cc1c[nH]c2ccccc12)NC(=O)CN)C(C)C)C(C)C)[C@@H](C)O)C(=O)O` [GWGSFFKKAAHVAKHVAKAALTHYL], the MIC – broadly, the lowest concentration found to suppress growth – in assay [1] was found to be 1.46 µM (≈ 4 µg/mL); in [2], 0.73 µM (≈ 2 µg/mL); in assay [3] it was 0.5 µM (≈ 1.37 µg/mL); in [4], 1.46 µM (≈ 4 µg/mL); in [5] it was 1 µM (≈ 2.74 µg/mL); in assay [6] it was 1 µM (≈ 2.74 µg/mL). Besides, the MIC in assay [7] was 0.5 µM (≈ 1.37 µg/mL); in assay [8] it was 0.365 µM (≈ 1 µg/mL); in [9], 1 µM (≈ 2.74 µg/mL); in [10] it was 4 µM (≈ 11 µg/mL).
For `CC(C)C[C@H](NC(=O)[C@H](Cc1ccc(O)cc1)NC(=O)[C@H](Cc1cnc[nH]1)NC(=O)[C@@H](NC(=O)[C@H](CC(C)C)NC(=O)[C@H](C)NC(=O)[C@H](C)NC(=O)[C@H](CCCCN)NC(=O)CNC(=O)[C@@H](NC(=O)[C@H](Cc1cnc[nH]1)NC(=O)[C@H](CCCCN)NC(=O)CNC(=O)[C@@H](NC(=O)[C@H](Cc1cnc[nH]1)NC(=O)[C@H](C)NC(=O)[C@H](C)NC(=O)[C@H](CCCCN)NC(=O)[C@H](CCCCN)NC(=O)[C@H](Cc1ccccc1)NC(=O)[C@H](Cc1ccccc1)NC(=O)[C@@H](N)CO)C(C)C)C(C)C)[C@@H](C)O)C(N)=O` [SFFKKAAHVGKHVGKAALTHYL], the MIC in assay [11] amounted to 20 µM (≈ 48.2 µg/mL); in assay [12] it was 20 µM (≈ 48.2 µg/mL); in [13], 20 µM (≈ 48.2 µg/mL); in assay [14], 14.1 µM (≈ 34.1 µg/mL); in assay [15], 20 µM (≈ 48.2 µg/mL); in assay [16], 14.1 µM (≈ 34.1 µg/mL). The minimum inhibitory concentration (MIC) in assay [17] was 28.3 µM (≈ 68.2 µg/mL); in assay [18] it was 20 µM (≈ 48.2 µg/mL); in assay [19], 14.1 µM (≈ 34.1 µg/mL); in assay [20], 28.3 µM (≈ 68.2 µg/mL); in [21], 28.3 µM (≈ 68.2 µg/mL).
In the case of `CC[C@H](C)[C@H](NC(=O)[C@@H]1CCCN1C(=O)[C@H](CCCN=C(N)N)NC(=O)[C@@H]1CCCN1C(=O)[C@H](Cc1cnc[nH]1)NC(=O)[C@H](CO)NC(=O)[C@@H](NC(=O)[C@@H]1CCCN1C(=O)[C@H](CCCN=C(N)N)NC(=O)[C@@H]1CCCN1C(=O)[C@@H](NC(=O)[C@H](Cc1ccc(O)cc1)NC(=O)[C@@H]1CCCN1C(=O)[C@H](CCCN=C(N)N)NC(=O)[C@@H]1CCCN1C(=O)[C@H](CCCCN)NC(=O)CN)[C@@H](C)O)[C@@H](C)O)C(=O)N[C@@H](CCCN=C(N)N)C(=O)N[C@H](C(=O)O)C(C)C` [GKPRPYTPRPTSHPRPIRV], the MIC is 3.62 µM (≈ 8 µg/mL) in assay [22], 0.904 µM (≈ 2 µg/mL) in assay [23], 3.62 µM (≈ 8 µg/mL) in assay [24] and 0.904 µM (≈ 2 µg/mL) in assay [25].
In the case of `CC[C@H](C)[C@H](NC(=O)CNC(=O)[C@H](CC(C)C)NC(=O)[C@H](CCCN=C(N)N)NC(=O)[C@H](CCCCN)NC(=O)[C@H](Cc1ccccc1)NC(=O)[C@@H](NC(=O)[C@H](CCCCN)NC(=O)[C@H](CCCCN)NC(=O)[C@H](C)N)C(C)C)C(=O)NCC(=O)N[C@@H](C)C(=O)N[C@H](C(=O)N[C@@H](CC(C)C)C(=O)N[C@@H](CCCCN)C(=O)N[C@H](C(=O)N[C@@H](CC(C)C)C(=O)N[C@@H](CCCCN)C(=O)N[C@@H](CCCCN)C(=O)NCC(=O)O)C(C)C)C(C)C` [AKKVFKRLGIGAVLKVLKKG], the MIC stood at 4.42 µM (≈ 9.52 µg/mL) in assay [26]; 0.78 µM (≈ 1.68 µg/mL) in assay [27]; 6.25 µM (≈ 13.5 µg/mL) in assay [28]; 0.39 µM (≈ 0.84 µg/mL) in [29]; 0.19 µM (≈ 0.409 µg/mL) in assay [6]; 1.56 µM (≈ 3.36 µg/mL) in assay [7]. This compound also showed an MIC in assay [30] of 6.25 µM (≈ 13.5 µg/mL).
